Reference: ChEMBL document CHEMBL4265965, “Dichloroacetophenones targeting at pyruvate dehydrogenase kinase 1 with improved selectivity and antiproliferative activity: Synthesis and structure-activity relationships” (Bioorg Med Chem Lett, 2018)
Calls of active or inactive are those of the source. The rule behind the calls is not given here.

Assays:
NCI-H1650 [1] = test: Antiproliferative activity against human NCI-H1650 cells assessed as inhibition of cell proliferation at 2 uM after 72 hrs by MTT assay relative to control; type: functional; conditions: for inhibition at 2 µM: NCI-H1650, 72 h
NCI-H1650 [2] = test: Antiproliferative activity against human NCI-H1650 cells assessed as inhibition of cell proliferation at 6 uM after 72 hrs by MTT assay relative to control; type: functional; conditions: for inhibition at 6 µM: NCI-H1650, 72 h
A549 [3] = test: Antiproliferative activity against human A549 cells assessed as inhibition of cell proliferation at 12 uM after 72 hrs by MTT assay relative to control; type: functional; conditions: for inhibition at 12 µM: A549, 72 h
NCI-H1650 [4] = test: Antiproliferative activity against human NCI-H1650 cells assessed as inhibition of cell proliferation at 12 uM after 72 hrs by MTT assay relative to control; type: functional; conditions: for inhibition at 12 µM: NCI-H1650, 72 h
NCI-H1975 [5] = test: Antiproliferative activity against human NCI-H1975 cells assessed as inhibition of cell proliferation at 12 uM after 72 hrs by MTT assay relative to control; type: functional; conditions: for inhibition at 12 µM: NCI-H1975, 72 h
NCI-H1975 [6] = test: Antiproliferative activity against human NCI-H1975 cells assessed as inhibition of cell proliferation at 2 uM after 72 hrs by MTT assay relative to control; type: functional; conditions: for inhibition at 2 µM: NCI-H1975, 72 h
A549 [7] = test: Antiproliferative activity against human A549 cells assessed as inhibition of cell proliferation at 6 uM after 72 hrs by MTT assay relative to control; type: functional; conditions: for inhibition at 6 µM: A549, 72 h
[8] = target: [Pyruvate dehydrogenase (acetyl-transferring)] kinase isozyme 1, mitochondrial (Homo sapiens, UniProt Q15118); test: Inhibition of recombinant human N-terminal His6/Sumo-tagged PDK1 (29 to 436 residues) expressed in Escherichia coli BL21 at 1 uM by kinase-glo luminescence assay relative to control
Sus scrofa = species on record: Sus scrofa; test: Inhibition of porcine PDK1 assessed as activation of pyruvate dehydrogenase complex at 1 uM measured after 3 mins
A549 [9] = test: Antiproliferative activity against human A549 cells assessed as inhibition of cell proliferation at 2 uM after 72 hrs by MTT assay relative to control; type: functional; conditions: for inhibition at 2 µM: A549, 72 h
NCI-H1975 [10] = test: Antiproliferative activity against human NCI-H1975 cells assessed as inhibition of cell proliferation at 6 uM after 72 hrs by MTT assay relative to control; type: functional; conditions: for inhibition at 6 µM: NCI-H1975, 72 h

Row | Compound | inhibition [8] | inhibition (Sus scrofa) | inhibition (NCI-H1650 [1]) | inhibition (NCI-H1650 [2]) | inhibition at 12 µM (A549 [3]) [%] | inhibition at 12 µM (NCI-H1650 [4]) [%] | inhibition at 12 µM (NCI-H1975 [5]) [%] | inhibition at 2 µM (NCI-H1975 [6]) [%] | inhibition at 6 µM (A549 [7]) [%] | inhibition at 2 µM (A549 [9]) [%] | inhibition at 6 µM (NCI-H1975 [10]) [%] | inhibition at 6 µM (NCI-H1650 [2]) [%] | inhibition (NCI-H1975 [6]) | inhibition (A549 [9]) | inhibition at 2 µM (NCI-H1650 [1]) [%] | inhibition (A549 [7]) | inhibition (NCI-H1975 [10]) | inhibition (A549 [3]) | inhibition (NCI-H1650 [4]) | inhibition (NCI-H1975 [5])
1 | O=C(c1ccc(OCCBr)c([N+](=O)[O-])c1)C(Cl)Cl | Active | Active | inactive | inactive | 63.7 | 23 | 80 | 15.2 | 24.5 | 9.5 | 53.2 |  |  |  |  |  |  |  |  | 
2 | O=C(Nc1ccccc1)C(Cl)Cl | inactive | inactive | inactive |  | 20.3 | 21.3 | 30.2 |  | 14.6 |  | 21.6 | 15.5 | inactive | inactive |  |  |  |  |  | 
3 | O=C(c1ccco1)C(Cl)Cl | inactive | 2.5% |  |  | 79.8 | 85.7 | 94.5 | 31.2 | 35.8 | 8.9 | 58.6 | 48.9 |  |  | 21.4 |  |  |  |  | 
4 | CC(C)Oc1ccc(C(=O)C(Cl)(Cl)Cl)cc1[N+](=O)[O-] | Active | Active | inactive | inactive | 15.9 | 24.7 | 35.6 |  |  |  |  |  | inactive | inactive |  | inactive | inactive |  |  | 
5 | O=C(c1ccncc1)C(Cl)Cl | inactive | 8.9% |  |  | 21.3 | 80.3 | 91.7 | 2.29 | 6.6 | 2.1 | 41.6 | 34.4 |  |  | 15.6 |  |  |  |  | 
6 | O=C(Oc1ccccc1)C(Cl)Cl | inactive | inactive | inactive | inactive |  |  |  |  |  |  |  |  | inactive | inactive |  | inactive | inactive | inactive | inactive | inactive

Continued, in another order:

Row | inhibition [8] | inhibition (Sus scrofa) | Compound | inhibition (NCI-H1650 [1]) | inhibition (NCI-H1650 [2]) | inhibition at 12 µM (A549 [3]) [%] | inhibition at 12 µM (NCI-H1650 [4]) [%] | inhibition at 12 µM (NCI-H1975 [5]) [%] | inhibition at 2 µM (NCI-H1975 [6]) [%] | inhibition at 6 µM (A549 [7]) [%] | inhibition at 2 µM (A549 [9]) [%] | inhibition at 6 µM (NCI-H1975 [10]) [%] | inhibition at 6 µM (NCI-H1650 [2]) [%] | inhibition (NCI-H1975 [6]) | inhibition (A549 [9]) | inhibition at 2 µM (NCI-H1650 [1]) [%] | inhibition (A549 [7]) | inhibition (NCI-H1975 [10]) | inhibition (A549 [3]) | inhibition (NCI-H1650 [4]) | inhibition (NCI-H1975 [5])
7 | Active | Active | CCCOc1ccc(C(=O)C(Cl)Cl)cc1[N+](=O)[O-] |  |  | 68.4 | 99.9 | 91.6 | 3.4 | 19.5 |  | 37.8 | 38 |  | inactive | 7.6 |  |  |  |  | 
8 | Active | Active | CCCCOc1ccc(C(=O)C(Cl)Cl)cc1[N+](=O)[O-] | inactive |  | 95.2 | 63.1 | 98.9 | 55.7 | 79.9 | 28.3 | 96.3 | 28.8 |  |  |  |  |  |  |  | 
9 | Active | Active | O=C(c1ccc(OCCCBr)c([N+](=O)[O-])c1)C(Cl)Cl |  |  | 97.7 | 74.6 | 99 | 60.8 | 84.3 | 26.8 | 94.5 | 48.1 |  |  | 11.5 |  |  |  |  | 
10 | Active | Active | CCCCCOc1ccc(C(=O)C(Cl)Cl)cc1[N+](=O)[O-] | inactive |  | 96.9 | 68 | 98.1 | 62.9 | 80.2 | 32.3 | 93.2 | 36.6 |  |  |  |  |  |  |  | 
